The source of these data is patent US20030158540A1, “METHOD FOR DECREASING CATHETER-ASSOCIATED BACTERIURIA” (priority 2002, published 2003).

Assay [1] concerns urinary bag bacterial growth. Conditions: daily decontamination with dilute bleach (5.25%); cited from earlier work.
In assay [2] the test system is types and levels of bacteria in the drainage bag. As to the kind of experiment: One-time instillation and drainage of irrigation solution into urinary drainage bags of long-term catheterized patients; urine cultures at 24-hour intervals. Conditions: for mean values for categories of colony count: score 3 = >100,000, 2 = 10,000 to 100,000, 1 = <10,000; for mean number of different types of organisms identified: about 50 ml one-time dose. It counts as in vivo. The source says:
The type of irrigation solution used constituted the independent variable. The irrigation solutions were sterile hydrogen peroxide and sterile distilled vinegar (as used herein, containing about 5 wt. % acetic acid). […] Hydrogen peroxide decomposes rapidly when exposed to light or organic matter. Vinegar is a weak acetic acid solution derived from alcohol by the action of Acetobacter. Vinegar is distilled to remove color and other impurities, yielding what is referred to as white vinegar.
The dependent variables of the investigation were the types and levels of bacteria in the drainage bag, at twenty-four hour intervals of incubation, during treatment conditions. A certified laboratory was contracted to determine the germicidal values of the solutions tested. After twenty-four hours of incubation at about 37° C. […], bacterial growth was recorded at twenty-four hour intervals. Laboratory protocol for reporting types and number of bacteria provided results by identification of the organism by species present in the specimen.
For the study, a total of fifty-seven subjects were initially identified to participate in the study: fifteen from three hospitals and forty-two from ten skilled nursing facilities. […] Patients who were febrile, acutely ill, receiving antibiotic therapy, or with symptoms of urinary tract infection were excluded based on a review of the patient's chart. Patients with other methods of urinary drainage, such as condom catheter drainage, superpubic catheterization, and intermittent urethral catheterization, were not considered. Moreover, because of the chance of cross-infection, infected and uninfected patients with indwelling urinary catheters who shared the same room or adjacent beds were not considered.
The patients were randomly assigned to three experimental groups: one group was designated a control group whose catheter drainage bags were not treated with an irrigation solution; the drainage bags of the remaining groups were treated with one of the two irrigation solutions investigated. The methods of data collection were verified prior to the commencement of the study by use of a literature review and institutional review board pre approval. All urine collection was made between 5:00 A.M. and 6:30 A.M. The urine specimens were promptly refrigerated and transported to the microbiology laboratory. Organisms and colony counts were identified by standard laboratory methods.
The research approach carried out in the study comprised four primary steps: (1) collection of urine from the catheter drainage bags for baseline cultures; (2) instillation of the irrigation solution into the drainage bags; (3) collection of urine from the drainage bags at 24-hour intervals; and (4) evaluation of the results of bacterial growth at 24-hour intervals. The initial concentration of bacteria in each drainage bag was determined prior to instillation of the irrigation solution. With regard to the patients in the groups whose drainage bags were treated with hydrogen peroxide or distilled vinegar, the drainage bags (approximate filled volume of about 50 to 150 ml) were emptied of any residual urine, after which the distal segment of the Foley catheter was clamped to avoid any possibility of reagent reflux into the patient's bladder.

Assay [3] relates to bacterial contamination of the drainage bag. Conditions: 30 ml every eight hours; thirty-one patients; cited from earlier work.
Assay [4] relates to catheter-associated urinary tract infections. Conditions: 30 ml in drainage bags every eight hours, cited from earlier work.
For assay [5], the system named is bacteriuria / bag contamination. The settings on record: cited from earlier work.
The mark [6] stands for this setting: forty-eight hours after instillation.

SMILES strings stand for the structures. A value given as a limit tells only on which side of the number the result lay.

`OCl` [sodium hypochlorite]: in assay [1], the bag cultures is on record as ≤ 50 CFU's/ml and the “decrease in urinary bag bacterial growth” value is 76.5%.

On to `OO` [Hydrogen Peroxide, Hydrogen peroxide], for which the “mean values for categories of colony count” value worked out at 6.2 in assay [2] (00 h (baseline)), 5.6 in assay [2] (24 h), 5.3 in assay [2] (48 h) and 3.8 in assay [2] (72 h). Moreover, the “mean number of different types of organisms identified” value worked out at 2.6 in assay [2] (00 h (baseline, before instillation)); 2.3 in assay [2] (24 h); 2.1 in assay [2] (48 h); 1.5 in assay [2] (72 h). The “colonies of bacteria compared to the control group (post hoc analysis)” value in assay [2] (setting [6]) is “no statistically significant difference”. For the same molecule, the “types of organisms compared to the control group (post hoc analysis)” value in assay [2] (setting [6]) was “no statistically significant difference”. Further, the “bacterial contamination of the drainage bag” value in assay [3] was “could be eliminated effectively”. Moreover, the “catheter-associated urinary tract infections” value in assay [4] (P<0.05) is listed as “significant reduction”. Also, the “bags from which bacteria continued to be isolated” value in assay [4] is given as “five of thirty”. For the same molecule, the rate of bacteriuria result in assay [5] (instillation of H2O2, N=238) is on record as “no reduction”. In assay [5] (peroxide group, control group 34%, P≦0.05), the “rate of bag contamination” value is 17%.
